{"source": "ChEMBL document CHEMBL1130455", "about": "“Synthesis and antirheumatic activity of novel tetrahydro-6-quinolineacetic acid derivatives” (1997)", "type_in_all_cases": "functional", "key": {"Mus musculus [1]": {"test_system": "Mus musculus", "experiment": "Inhibitory effect on vascular permeability in mice [inhibitory rate of compound 100 mg/kg administered perorally]/[inhibitory rate of diclofenac-Na 25 mg/kg administered perorally]"}, "Ovis aries": {"species": "Ovis aries", "experiment": "In vitro inhibitory effect of anti-sheep erythrocyte IgM antibody-producing cells, (value is obtained by the number of IgM-PFC in the tested group and that in the control) at a concentration of 2*10e-6M"}, "Rattus norvegicus [2]": {"test_system": "Rattus norvegicus", "experiment": "Inhibitory effect on adjuvant arthritis in rats at a dose of 12.5 mg/kg (the value is obtained by comparison between the non-injected paw volumes of the arthritic and control)."}, "Rattus norvegicus [3]": {"test_system": "Rattus norvegicus", "experiment": "Inhibitory effect on adjuvant arthritis in rats at a dose of 25.0 mg/kg (the value is obtained by comparison between the non-injected paw volumes of the arthritic and control).", "details": "for inhibition in vivo at 25 mg/kg: Rattus norvegicus"}, "Mus musculus [4]": {"test_system": "Mus musculus", "experiment": "Inhibitory effect on vascular permeability in mice [inhibitory rate of compound 50 mg/kg administered perorally]/[inhibitory rate of diclofenac-Na 25 mg/kg administered perorally]"}, "Rattus norvegicus [5]": {"species": "Rattus norvegicus", "experiment": "The suppression of calcium release from bone stimulated with IL1-beta in vitro at a concentration of 2.0 ug/mL expressed as percent inhibition of bone resorption."}, "Rattus norvegicus [6]": {"test_system": "Rattus norvegicus", "experiment": "Inhibitory effect on adjuvant arthritis in rats at a dose of 6.3 mg/kg (the value is obtained by comparison between the non-injected paw volumes of the arthritic and control)."}, "Rattus norvegicus [7]": {"test_system": "Rattus norvegicus", "experiment": "Bone damage score on day 27(the result of radiolgic analysis of non-injected paws on day 27) the bone destruction advances in the articular of adjuvant arthritic rat at a dose of 25 mg/kg"}, "Rattus norvegicus [8]": {"species": "Rattus norvegicus", "experiment": "The suppression of calcium release from bone stimulated with IL1-beta in vitro at a concentration of 10.0 ug/mL expressed as percent inhibition of bone resorption"}, "Rattus norvegicus [9]": {"species": "Rattus norvegicus", "experiment": "The suppression of calcium release from bone stimulated with IL1-beta in vitro at a concentration of 0.4 ug/mL expressed as percent inhibition of bone resorption"}, "Rattus norvegicus [10]": {"species": "Rattus norvegicus", "experiment": "The suppression of calcium release from bone stimulated with PTH in vitro at a concentration of 0.4 ug/mL expressed as percent inhibition of bone resorption."}, "Rattus norvegicus [11]": {"species": "Rattus norvegicus", "experiment": "The suppression of calcium release from bone stimulated with PTH in vitro at a concentration of 2.0 ug/mL expressed as percent inhibition of bone resorption."}, "Rattus norvegicus [12]": {"species": "Rattus norvegicus", "experiment": "The suppression of calcium release from bone stimulated with PTH in vitro at a concentration of 10.0 ug/mL expressed as percent inhibition of bone resorption"}, "Rattus norvegicus [13]": {"test_system": "Rattus norvegicus", "experiment": "Inhibitory effect on adjuvant arthritis in rats at a dose of 25 mg/kg, (the value is obtained by comparison between the non-injected paw volumes of the arthritic and control)."}, "Rattus norvegicus [14]": {"test_system": "Rattus norvegicus", "experiment": "Inhibitory effect on adjuvant arthritis in rats at a dose of 12.5 mg/kg, (the value is obtained by comparison between the non-injected paw volumes of the arthritic and control)"}, "Rattus norvegicus [15]": {"test_system": "Rattus norvegicus", "experiment": "Inhibitory effect on adjuvant arthritis in rats at a dose of 100 mg/kg (the value is obtained by comparison between the non-injected paw volumes of the arthritic and control)"}, "Rattus norvegicus [16]": {"test_system": "Rattus norvegicus", "experiment": "Inhibitory effect on adjuvant arthritis in rats at a dose of 50 mg/kg (the value is obtained by comparison between the non-injected paw volumes of the arthritic and control)"}, "Rattus norvegicus [17]": {"test_system": "Rattus norvegicus", "experiment": "Inhibitory effect on adjuvant arthritis in rats at a dose of 25 mg/kg (the value is obtained by comparison between the non-injected paw volumes of the arthritic and control)"}, "Rattus norvegicus [18]": {"test_system": "Rattus norvegicus", "experiment": "Inhibitory effect on adjuvant arthritis in rats at a dose of 12.5 mg/kg (the value is obtained by comparison between the non-injected paw volumes of the arthritic and control)"}, "Rattus norvegicus [19]": {"test_system": "Rattus norvegicus", "experiment": "Inhibitory effect on adjuvant arthritis in rats at a dose of 10 mg/kg (the value is obtained by comparison between the non-injected paw volumes of the arthritic and control)"}, "Rattus norvegicus [20]": {"test_system": "Rattus norvegicus", "experiment": "Bone damage score on day 27(the result of radiolgic analysis of non-injected paws on day 27) the bone destruction advances in the articular of adjuvant arthritic rat at a dose of 0.5 mg/kg"}, "Rattus norvegicus [21]": {"test_system": "Rattus norvegicus", "experiment": "Inhibitory effect on adjuvant arthritis in rats at a dose of 25 mg/kg (the value is obtained by comparison between the non-injected paw volumes of the arthritic and control)."}}}
{"smiles": "CCC1CCc2cc(CC(=O)O)cc(Cl)c2N1", "note": "(stereo not given)", "values": [{"measurement": "inhibition ratio vs diclofenac", "setting": "Mus musculus [1]", "value": 1.54}]}
{"smiles": "CC(C)C1CCc2cc(CC(=O)O)cc(Cl)c2N1", "note": "(stereo not given)", "values": [{"measurement": "inhibition ratio vs diclofenac", "setting": "Mus musculus [1]", "value": 1.1}]}
{"smiles": "O=C(O)Cc1cc(Cl)c2c(c1)CCC(C(F)(F)F)N2", "note": "(stereo not given)", "values": [{"measurement": "Inhibition", "setting": "Ovis aries", "value": 71, "unit": "%"}, {"measurement": "inhibition ratio vs diclofenac", "setting": "Mus musculus [1]", "value": 1.48}, {"measurement": "inhibition in vivo at 12.5 mg/kg", "setting": "Rattus norvegicus [2]", "value": 36, "unit": "%"}, {"measurement": "Inhibition", "setting": "Rattus norvegicus [3]; 25 mg/kg", "value": 46, "unit": "%"}, {"measurement": "inhibition in vivo at 25 mg/kg", "setting": "Rattus norvegicus [3]", "value": 45, "unit": "%"}, {"measurement": "inhibition ratio vs diclofenac", "setting": "Mus musculus [4]", "value": 0.99}]}
{"smiles": "O=C(O)Cc1ccc2c(c1)CCCN2", "values": [{"measurement": "inhibition ratio vs diclofenac", "setting": "Mus musculus [1]", "value": 1.06}]}
{"smiles": "O=C(O)Cc1cc(Cl)c2c(c1)CC[C@@H](C(F)(F)F)N2", "values": [{"measurement": "Inhibition", "setting": "Rattus norvegicus [5]", "value": 78, "unit": "%"}, {"measurement": "inhibition in vivo at 6.3 mg/kg", "setting": "Rattus norvegicus [6]", "value": 25, "unit": "%"}, {"measurement": "Bone damage score", "setting": "Rattus norvegicus [7]", "value": 2.5}, {"measurement": "Inhibition", "setting": "Rattus norvegicus [8]", "value": 97, "unit": "%"}, {"measurement": "inhibition ratio vs diclofenac", "setting": "Mus musculus [1]", "value": 1.62}, {"measurement": "inhibition in vivo at 12.5 mg/kg", "setting": "Rattus norvegicus [2]", "value": 34, "unit": "%"}, {"measurement": "Inhibition", "setting": "Rattus norvegicus [9]", "value": 24, "unit": "%"}, {"measurement": "Inhibition", "setting": "Rattus norvegicus [10]", "value": 41, "unit": "%"}, {"measurement": "inhibition in vivo at 25 mg/kg", "setting": "Rattus norvegicus [3]", "value": 60, "unit": "%"}, {"measurement": "inhibition ratio vs diclofenac", "setting": "Mus musculus [4]", "value": 1.28}, {"measurement": "Inhibition", "setting": "Rattus norvegicus [11]", "value": 61, "unit": "%"}, {"measurement": "Inhibition", "setting": "Rattus norvegicus [12]", "value": 94, "unit": "%"}]}
{"smiles": "O=C(O)Cc1cc(Cl)c2c(c1)CCC(c1ccccc1)N2", "note": "(stereo not given)", "values": [{"measurement": "inhibition ratio vs diclofenac", "setting": "Mus musculus [1]", "value": 1.63}]}
{"smiles": "COc1ccc(C2CCc3cc(CC(=O)O)cc(Cl)c3N2)cc1", "note": "(stereo not given)", "values": [{"measurement": "inhibition ratio vs diclofenac", "setting": "Mus musculus [1]", "value": 0.62}]}
{"smiles": "CC1(C)CCc2cc(CC(=O)O)cc(Cl)c2N1", "values": [{"measurement": "inhibition ratio vs diclofenac", "setting": "Mus musculus [1]", "value": 1.22}]}
{"smiles": "CC1CCc2cc(CC(=O)O)cc(Cl)c2N1", "note": "(stereo not given)", "values": [{"measurement": "Inhibition", "setting": "Ovis aries", "value": 60, "unit": "%"}, {"measurement": "inhibition in vivo at 25 mg/kg", "setting": "Rattus norvegicus [13]", "value": 56, "unit": "%"}, {"measurement": "inhibition ratio vs diclofenac", "setting": "Mus musculus [1]", "value": 1.94}, {"measurement": "inhibition in vivo at 12.5 mg/kg", "setting": "Rattus norvegicus [14]", "value": 42, "unit": "%"}]}
{"smiles": "O=C(O)Cc1cc(Cl)c2c(c1)CCC(c1ccccc1F)N2", "note": "(stereo not given)", "values": [{"measurement": "inhibition in vivo at 100 mg/kg", "setting": "Rattus norvegicus [15]", "value": 64, "unit": "%"}, {"measurement": "inhibition in vivo at 50 mg/kg", "setting": "Rattus norvegicus [16]", "value": 52, "unit": "%"}, {"measurement": "inhibition ratio vs diclofenac", "setting": "Mus musculus [1]", "value": 2.09}, {"measurement": "inhibition in vivo at 25 mg/kg", "setting": "Rattus norvegicus [17]", "value": 19, "unit": "%"}]}
{"smiles": "O=C(O)Cc1cc(Cl)c2c(c1)CC[C@H](C(F)(F)F)N2", "values": [{"measurement": "inhibition ratio vs diclofenac", "setting": "Mus musculus [1]", "value": 1.5}, {"measurement": "inhibition in vivo at 25 mg/kg", "setting": "Rattus norvegicus [3]", "value": 20, "unit": "%"}, {"measurement": "inhibition ratio vs diclofenac", "setting": "Mus musculus [4]", "value": 0.43}, {"measurement": "inhibition in vivo at 12.5 mg/kg", "setting": "Rattus norvegicus [18]", "value": 3, "unit": "%"}]}
{"smiles": "O=C(O)Cc1cc(Cl)c2c(c1)CCCN2", "values": [{"measurement": "inhibition in vivo at 100 mg/kg", "setting": "Rattus norvegicus [15]", "value": 55, "unit": "%"}, {"measurement": "inhibition in vivo at 50 mg/kg", "setting": "Rattus norvegicus [16]", "value": 20, "unit": "%"}, {"measurement": "inhibition ratio vs diclofenac", "setting": "Mus musculus [1]", "value": 1.44}, {"measurement": "inhibition in vivo at 10 mg/kg", "setting": "Rattus norvegicus [19]", "value": 27, "unit": "%"}]}
{"smiles": "O=C(O)Cc1cc(Cl)c2c(c1)CCC(C(=O)O)N2", "note": "(stereo not given)", "values": [{"measurement": "inhibition ratio vs diclofenac", "setting": "Mus musculus [1]", "value": 0}]}
{"smiles": "O=C([O-])Cc1ccccc1Nc1c(Cl)cccc1Cl.[Na+]", "note": "[DICLOFENAC SODIUM]", "values": [{"measurement": "Bone damage score", "setting": "Rattus norvegicus [20]", "value": 4.3}]}
{"smiles": "CCCC1CCc2cc(CC(=O)O)cc(Cl)c2N1", "note": "(stereo not given)", "values": [{"measurement": "inhibition in vivo at 25 mg/kg", "setting": "Rattus norvegicus [21]", "value": 47, "unit": "%"}, {"measurement": "inhibition ratio vs diclofenac", "setting": "Mus musculus [1]", "value": 1.59}, {"measurement": "inhibition in vivo at 12.5 mg/kg", "setting": "Rattus norvegicus [2]", "value": 32, "unit": "%"}]}
